{"source": "patent US20220304926A1", "about": "“PHARMACEUTICAL COMPOSITION COMPRISING A COLLOIDAL DISPERSION AND METHODS AND USES THEREOF” (PREBONA AB, priority 2019, published 2022)", "key": {"[1]": {"test_system": "Huh7^A2HCV^Rep and Huh7^A2 cell lines", "test": "MTT tetrazolium proliferation / cellular toxicity assay", "type": "cell-based", "procedure": "Cells were seeded in flat bottom 96-well plates (Nuncleon™ Δ Surface, Denmark) at a density of 5 000 cells/well in 100 μL of culture medium without antibiotics (G418, puromycin and blasticidin). […] The final concentration of DMSO never exceeded 0.2%. AGSOL 1000-5-5, diluted in culture medium, was added at several concentrations: 0.01 ng/mL, 0.1 ng/mL, 1 ng/mL, 10 ng/mL, 0.1 μg/mL, 1 μg/mL, 10 μg/mL and 100 μg/mL. AGSOL 100-5-5 was added as described above, excluding the concentration 100 μg/mL. Medium without added cells and cells without any inhibitors constituted negative controls. […]\nThe 3-[4,5-dimethyltiazol-2-yl]-2,5-diphenyl tetrazolium bromide is cleaved by mitochondrial dehydrogenases of viable cells, leading to purple formazan in the form of insoluble crystals in aqueous solutions but dissolved in acidified isopropanol. The resulting purple solution is spectrophotometrically measured. […]\nAt time-points 24, 48, 72 and 96 hours post-addition of inhibitors, culture plates were removed from incubator into laminar flow hood. […] The background absorbance of multi-well plates was measured at 690 nm and was subtracted from the 570 nm values. Results were presented as the percentage of viability per condition (inhibitor/concentration) and the absorbance (A570 nm−A690 nm) per time-point for each inhibitor and per cell line. […]"}, "[2]": {"test_system": "HCV subgenomic RNA replicon of genotype 1b in Huh7^A2HCV^Rep cells", "test": "Luciferase activity assay, HCV replicon in vitro replication", "type": "cell-based", "conditions": "Hepatitis C virus, 500 nM", "text": "A hepatoma cell line (Huh7-Lunet) designated Lunet-HlaA2-luc/neoET (Huh7^A2HCV^Rep) and Lunet-HlaA2 (Huh7^A2) were kindly provided by Dr. Volker Lohmann (UniversitätsKlinikum Heidelberg, Molekulare Virologie). The Lunet-HlaA2-luc/neoET expressed ectopically HLA-A2 and a selectable HCV subgenomic RNA replicon of genotype 1b harboring replication-enhancing mutations in NS3 and NS4 (Con1-ET). The replicon also expresses the selectable marker neomycin phosphotransferase, which inactivates the cytotoxic drug G418. The expression of non-structural proteins was driven by the encephalomyocarditis virus IRES (Robinson, M., Yang, H., Peng B. et al. 2010. Antimicrobial Agents and Chemotherapy. 54(8):3099-3106; Pasetto, A., Frelin, L. et al. 2012. J immunol. 189:4510-4519). The replicon cells expressed the firefly luciferase gene fused to the selectable marker by ubiquitin. As control, the parenteral cell line, designated Lunet-HlaA2, was used.\nCells were seeded in flat bottom 96-well plates (Nuncleon™ Δ Surface, Denmark) at a density of 5 000 cells/well in 100 μL of culture medium without antibiotics (G418, puromycin and blasticidin). […] The final concentration of DMSO never exceeded 0.2%. AGSOL 1000-5-5, diluted in culture medium, was added at several concentrations: 0.01 ng/mL, 0.1 ng/mL, 1 ng/mL, 10 ng/mL, 0.1 μg/mL, 1 μg/mL, 10 μg/mL and 100 μg/mL. AGSOL 100-5-5 was added as described above, excluding the concentration 100 μg/mL. Medium without added cells and cells without any inhibitors constituted negative controls. Each concentration of drug was tested in 5 unique wells and the same protocol was carried out for Huh7^A2HCV^Rep and Huh7^A2 cell lines. Inhibitors were refreshed daily. The experimental assays were performed three times with similar results.\nThe Lunet-HlaA2 (Huh7^A2) cell line was only used as negative control in this assay. The firefly luciferase gene expressed by the replicon cells catalyses the mono-oxygenation of beetle luciferin according to the reaction described in the following reaction scheme:\nAt time-points 24, 48, 72 and 96 hours post-addition of inhibitors, culture plates were removed from incubator into laminar flow hood and an equal volume of Luciferase assay reagent to that of the culture medium in each well was added. Three minutes were allowed for complete cell lysis, and subsequently the luminescence was measured. Absorbance and luminescence were read by Infinite 200 PRO reader (Tecan Group Ltd, Maennedorf, Switzerland).\nThe HCV in vitro replication was quantified by measuring the reporter gene expression. The Huh7^A2HCV^Rep cell line expresses both the HCV replicon and the firefly luciferase gene. The measurement of luciferase correlates with the HCV replication activity."}}, "data": [{"smiles": "CC(C)(C)NC(=O)N[C@H](C(=O)N1C[C@H]2[C@@H]([C@H]1C(=O)NC(CC1CCC1)C(=O)C(N)=O)C2(C)C)C(C)(C)C", "note": "(stereo partly drawn) [Boceprevir]", "values": [{"measurement": "cellular viability compared to cells grown without inhibitor", "setting": "[1]; Boceprevir 100-500 nM, throughout the experiments (24-96 hpa), both cell lines", "result": "≥ 75", "unit": "%"}, {"measurement": "cellular toxicity by kinetic analysis of absorbance values", "setting": "[1]; Boceprevir, 24, 48, 72 and 96 hours post-addition", "result": "did not cause any markedly cellular toxicity"}, {"measurement": "inhibition at 0.5 µM", "setting": "[2]; 24 hpa", "result": "~85", "unit": "%"}, {"measurement": "inhibition at 0.5 µM", "setting": "[2]; 48 hpa", "result": "~90", "unit": "%"}, {"measurement": "inhibition at 0.5 µM", "setting": "[2]; 72 hpa", "result": "~90", "unit": "%"}, {"measurement": "inhibition at 0.5 µM", "setting": "[2]; 96 hpa", "result": "~90", "unit": "%"}]}]}
